Data published in ChEMBL document CHEMBL4118210, “Synthesis of novel hetero ring fused pyridine derivatives; Their anticancer activity, CoMFA and CoMSIA studies” (Bioorg Med Chem Lett, 2018).

Experiments:
COLO 205 = experiment: Antiproliferative activity against human COLO205 cells by MTT assay; format: functional, cell-based
HEK293 = experiment: Antiproliferative activity against human HEK293 cells by MTT assay; format: cell-based
MCF7 = experiment: Antiproliferative activity against human MCF7 cells by MTT assay; format: functional, cell-based
HepG2 = experiment: Antiproliferative activity against human HepG2 cells by MTT assay; format: functional, cell-based
HeLa = experiment: Antiproliferative activity against human HeLa cells by MTT assay; format: functional, cell-based

SMILES | IC50 (COLO 205; read-out: IC50) | IC50 (COLO 205; read-out: pIC50 (converted)) | IC50 (HEK293) | IC50 (MCF7; read-out: IC50) | IC50 (MCF7; read-out: pIC50 (converted)) | IC50 (HepG2) | IC50 (HeLa; read-out: IC50) | IC50 (HeLa; read-out: pIC50 (converted))
O=c1c2oc3nc(-c4cccs4)cc(C(F)(F)F)c3c2ncn1C1CCCC1 | 42.5 µM | 42.7 µM | > 220 µg/mL | 62.7 µM | 63.1 µM | 49.8 µM | 50.2 µM | –
Cc1ccc(/C=N/NC(=O)c2oc3nc(-c4ccccc4)cc(C(F)(F)F)c3c2N)cc1 | 9.1 µM | 9.12 µM | 69 µM | 10.2 µM | 10.2 µM | 8.9 µM | 11.8 µM | 11.7 µM
CCCNC(=O)c1oc2nc(-c3cccs3)cc(C(F)(F)F)c2c1N | 15.3 µM | 15.5 µM | 64 µM | 20.4 µM | 20.4 µM | 17.2 µM | 18.9 µM | 19.1 µM
O=c1c2oc3nc(-c4cccs4)cc(C(F)(F)F)c3c2ncn1/N=C/c1ccc(Br)cc1 | > 220 µg/mL | – | > 220 µg/mL | > 220 µg/mL | – | > 220 µg/mL | > 220 µg/mL | –
CCCn1c(C)nc2c(oc3nc(-c4ccccc4)cc(C(F)(F)F)c32)c1=O | > 220 µg/mL | – | 52 µM | 117 µM | 117 µM | > 220 µg/mL | > 220 µg/mL | –
O=c1c2oc3nc(-c4ccccc4)cc(C(F)(F)F)c3c2ncn1C1CCCC1 | > 220 µg/mL | – | > 220 µg/mL | > 220 µg/mL | – | > 220 µg/mL | > 220 µg/mL | –
CCCn1c(C)nc2c(oc3nc(-c4cccs4)cc(C(F)(F)F)c32)c1=O | 18.9 µM | 19.1 µM | 68 µM | 31.5 µM | 31.6 µM | 22.8 µM | 28.5 µM | 28.8 µM
Cn1cnc2c(oc3nc(-c4ccccc4)cc(C(F)(F)F)c32)c1=O | > 220 µg/mL | 9.77 µM | > 220 µg/mL | > 220 µg/mL | – | 221 µM | > 220 µg/mL | –
Nc1c(C(=O)N/N=C/c2ccc(Br)cc2)oc2nc(-c3ccccc3)cc(C(F)(F)F)c12 | 21.2 µM | 21.4 µM | 64 µM | 18.7 µM | 18.6 µM | 19.9 µM | 23.9 µM | 24 µM
CCn1c(C)nc2c(oc3nc(-c4cccs4)cc(C(F)(F)F)c32)c1=O | > 220 µg/mL | – | > 220 µg/mL | > 220 µg/mL | – | > 220 µg/mL | > 220 µg/mL | –
CCCNC(=O)c1oc2nc(-c3ccccc3)cc(C(F)(F)F)c2c1N | 38.9 µM | 38.9 µM | 81 µM | 35.6 µM | 35.5 µM | 37.4 µM | 36.1 µM | 36.3 µM
Nc1c(C(=O)N/N=C/c2ccc(Br)cc2)oc2nc(-c3cccs3)cc(C(F)(F)F)c12 | 5.9 µM | 5.89 µM | 86 µM | 5.2 µM | 5.25 µM | 6.1 µM | 6.4 µM | 6.46 µM
Nc1c(C(=O)N/N=C/c2ccc(Cl)cc2)oc2nc(-c3ccccc3)cc(C(F)(F)F)c12 | 11.1 µM | 11.2 µM | 81 µM | 11.9 µM | 12 µM | 12.1 µM | 4.1 µM | 4.07 µM
O=c1c2oc3nc(-c4ccccc4)cc(C(F)(F)F)c3c2ncn1/N=C/c1ccc(Cl)cc1 | 43.6 µM | 43.7 µM | > 220 µg/mL | 56.8 µM | 57.5 µM | > 220 µg/mL | > 220 µg/mL | –
CNC(=O)c1oc2nc(-c3ccccc3)cc(C(F)(F)F)c2c1N | 36.8 µM | 37.2 µM | 62 µM | 37.4 µM | 37.2 µM | 41.2 µM | 40.2 µM | 45.7 µM
Cn1cnc2c(oc3nc(-c4cccs4)cc(C(F)(F)F)c32)c1=O | > 220 µg/mL | – | > 220 µg/mL | > 220 µg/mL | – | > 220 µg/mL | > 220 µg/mL | 50.1 µM
Cc1nc2c(oc3nc(-c4ccccc4)cc(C(F)(F)F)c32)c(=O)n1C1CCCC1 | 18.7 µM | 18.6 µM | 96 µM | 22.8 µM | 22.9 µM | 17.1 µM | 18.2 µM | 18.2 µM
CCNC(=O)c1oc2nc(-c3cccs3)cc(C(F)(F)F)c2c1N | 18.7 µM | 18.6 µM | 62 µM | 21.8 µM | 21.9 µM | 12.1 µM | 14.2 µM | 14.1 µM
CCCn1cnc2c(oc3nc(-c4ccccc4)cc(C(F)(F)F)c32)c1=O | > 220 µg/mL | – | 90 µM | 85.5 µM | 85.1 µM | > 220 µg/mL | > 220 µg/mL | –
CCn1c(C)nc2c(oc3nc(-c4ccccc4)cc(C(F)(F)F)c32)c1=O | > 220 µg/mL | – | > 220 µg/mL | > 220 µg/mL | – | > 220 µg/mL | > 220 µg/mL | –
Cc1ccc(/C=N/NC(=O)c2oc3nc(-c4cccs4)cc(C(F)(F)F)c3c2N)cc1 | 21.2 µM | 10.2 µM | 78 µM | 18.7 µM | 11.2 µM | 19.8 µM | 24.4 µM | 9.12 µM

SMILES | IC50 (COLO 205; read-out: IC50) | IC50 (COLO 205; read-out: pIC50 (converted)) | IC50 (HEK293) | IC50 (MCF7; read-out: IC50) | IC50 (MCF7; read-out: pIC50 (converted)) | IC50 (HepG2) | IC50 (HeLa; read-out: IC50) | IC50 (HeLa; read-out: pIC50 (converted))
Nc1c(C(=O)NC2CCCC2)oc2nc(-c3ccccc3)cc(C(F)(F)F)c12 | 51.1 µM | 51.3 µM | 85 µM | 59.8 µM | 60.3 µM | 32.4 µM | 25.8 µM | 25.7 µM
O=c1c2oc3nc(-c4ccccc4)cc(C(F)(F)F)c3c2ncn1/N=C/c1ccccc1 | > 220 µg/mL | – | > 220 µg/mL | > 220 µg/mL | – | > 220 µg/mL | > 220 µg/mL | –
Nc1c(C(=O)N/N=C/c2ccc(Cl)cc2)oc2nc(-c3cccs3)cc(C(F)(F)F)c12 | 7.8 µM | 7.94 µM | 83 µM | 7.4 µM | 7.41 µM | 8.1 µM | 8 µM | 7.94 µM
O=c1c2oc3nc(-c4ccccc4)cc(C(F)(F)F)c3c2ncn1/N=C/c1ccc(Br)cc1 | > 220 µg/mL | – | > 220 µg/mL | > 220 µg/mL | – | > 220 µg/mL | > 220 µg/mL | –
Cc1nc2c(oc3nc(-c4cccs4)cc(C(F)(F)F)c32)c(=O)n1C1CCCC1 | > 220 µg/mL | – | 124 µM | > 220 µg/mL | 11.7 µM | > 220 µg/mL | > 220 µg/mL | –
CCCn1cnc2c(oc3nc(-c4cccs4)cc(C(F)(F)F)c32)c1=O | > 220 µg/mL | – | > 220 µg/mL | > 220 µg/mL | – | > 220 µg/mL | > 220 µg/mL | –
CCNC(=O)c1oc2nc(-c3ccccc3)cc(C(F)(F)F)c2c1N | 29.2 µM | 28.8 µM | 70 µM | 54 µM | 53.7 µM | 42.8 µM | 36.2 µM | 36.3 µM
O=c1c2oc3nc(-c4cccs4)cc(C(F)(F)F)c3c2ncn1/N=C/c1ccccc1 | > 220 µg/mL | – | 90 µM | > 220 µg/mL | – | > 220 µg/mL | 42.3 µM | 42.7 µM
CCn1cnc2c(oc3nc(-c4cccs4)cc(C(F)(F)F)c32)c1=O | > 220 µg/mL | – | > 220 µg/mL | > 220 µg/mL | – | > 220 µg/mL | > 220 µg/mL | –
Nc1c(C(=O)NC2CCCC2)oc2nc(-c3cccs3)cc(C(F)(F)F)c12 | 18.4 µM | 18.6 µM | 51 µM | 22.9 µM | 22.9 µM | 20.8 µM | 21.8 µM | 21.9 µM
CNC(=O)c1oc2nc(-c3cccs3)cc(C(F)(F)F)c2c1N | 17.8 µM | 17.8 µM | 75 µM | 18 µM | 18.2 µM | 12.3 µM | 15.6 µM | 15.5 µM
Cc1nc2c(oc3nc(-c4ccccc4)cc(C(F)(F)F)c32)c(=O)n1C | > 220 µg/mL | – | > 220 µg/mL | > 220 µg/mL | – | > 220 µg/mL | > 220 µg/mL | –
O=c1c2oc3nc(-c4cccs4)cc(C(F)(F)F)c3c2ncn1/N=C/c1ccc(Cl)cc1 | 51.2 µM | 51.3 µM | 102 µM | 42.1 µM | 42.7 µM | > 220 µg/mL | > 220 µg/mL | –
Nc1c(C(=O)N/N=C/c2ccccc2)oc2nc(-c3cccs3)cc(C(F)(F)F)c12 | 9.7 µM | – | 72 µM | 12.1 µM | 12 µM | 9.9 µM | 11.8 µM | 11.7 µM
Cc1ccc(/C=N/n2cnc3c(oc4nc(-c5ccccc5)cc(C(F)(F)F)c43)c2=O)cc1 | > 220 µg/mL | – | > 220 µg/mL | > 220 µg/mL | – | > 220 µg/mL | > 220 µg/mL | –
Nc1c(C(=O)N/N=C/c2ccccc2)oc2nc(-c3ccccc3)cc(C(F)(F)F)c12 | 12.2 µM | 12.3 µM | 70 µM | 14.2 µM | 14.1 µM | 13.1 µM | 13.4 µM | 13.5 µM
Cc1ccc(/C=N/n2cnc3c(oc4nc(-c5cccs5)cc(C(F)(F)F)c43)c2=O)cc1 | > 220 µg/mL | – | > 220 µg/mL | 29.7 µM | 29.5 µM | > 220 µg/mL | 42.3 µM | 42.7 µM
CCn1cnc2c(oc3nc(-c4ccccc4)cc(C(F)(F)F)c32)c1=O | > 220 µg/mL | – | 121 µM | 82.4 µM | 83.2 µM | > 220 µg/mL | > 220 µg/mL | –
Cc1nc2c(oc3nc(-c4cccs4)cc(C(F)(F)F)c32)c(=O)n1C | > 220 µg/mL | – | > 220 µg/mL | > 220 µg/mL | – | > 220 µg/mL | > 220 µg/mL | –
O=c1[nH]cc(F)c(=O)[nH]1 [FLUOROURACIL] | – | – | 19.6 µM | – | – | 1.7 µM | – | –
